Where two headings read alike, the source gives them in different places.
Experiments:
Format in all cases: cell-based
[1] = system: respiratory syncytial virus (RSV); test: Inhibition of RSV syncytium formation in Hep-2 cells
Procedure: Compound XVIII was added to Hep-2 cells growing as slope cultures in plastics tubes to give final concentrations respectively of 50, 100 and 200 µg/mℓ. The cultures were then respectively inoculated with a high standard viral dose, one tenth (1/10) of said standard dose, and one hundredth (1/100) of said standard dose of respiratory syncytial virus (RSV). After four days of incubation at 33°C the cells were visually inspected using an inverted phase contrast microscope and scored for the extent of syncytium formation, i.e. single cells containing three or more nuclei, as follows: a = 0 - 25%, b = 25 - 50%, c = 50 - 75% and d = 75 - 100% of cells having three or more nuclei.

cytomegalo-virus (CMV) = test: Cytopathic effect of CMV in primary foetal human fibroblasts
Procedure: (§1) Compound XVII was added to primary foetal human fibroblasts in tissue culture, to yield final concentrations respectively of 50, 100 and 200 µg/mℓ. The cultures were then respectively inoculated with a high standard viral dose, with one tenth (1/10) of said standard dose and with one fiftieth (1/50) of said standard dose of cytomegalo-virus (CMV) and incubated for four days.
The cytopathic effect of CMV was determined by microscopic visual inspection of the cell cultures, in terms of the extent of gross swelling of the cells, where: a = 0 - 25%, b = 25 - 50%, c = 50 - 75% and d = 75 - 100% of the cells affected by gross swelling.

[2] = system: primary foetal human fibroblasts; test: Signs of toxicity in the fibroblast cultures of the CMV test; settings: 200 µg/mℓ
Procedure: as §1

[3] = system: human immunodeficiency virus type 1 (HIV-1); test: Inhibition of HIV-1 proliferation in PHA-activated human PBL's (p24 core protein by Sandwich ELISA, HIV RNA by labelled DNA probe hybridization); settings: for inhibition at 50 µg/mL: read-out: % inhibition:HIV-RNA, 50 μg/mℓ; for inhibition at 100 µg/mL: read-out: % inhibition:HIV-RNA, 100 μg/mℓ
Procedure: Compounds I - XXVIII were subjected to in vitro testing for inhibition of human immunodeficiency virus type 1 (HIV-1) proliferation as follows:
Human peripheral blood lymphocytes (PBL's) obtained by density gradient centrifugation of blood from healthy volunteers at a blood bank were pooled and used for the propagation of HIV-1 in vitro.
The PBL's were polyclonally activated with phytohaemagglutinin (PHA) and subjected to quality controls whereby their viability was tested with Trypan blue exclusion and the expression of activation antigens, CD4⁺ and CD25⁺ was measured by immunofluorescence. Prior to adding the test substance, the activated PBL's were exposed to a standardized titre of HIV-1 virus and after incubation for 60 minutes the cells were washed twice and plated into microtitre plates at a concentration of 2X10⁶ cells/well. The medium contained interleukin-2 and in control wells the virus produced between 50 and 100 ng/mℓ of p24 core protein on day 4. The test substance was added to these cultures either in water or dimethyl sulphoxide (DMSO) depending on solubility characteristics. The final DMSO concentration, when used, was always 1% v/v.
HIV replication was measured as the production of p24 core protein and the production of HIV RNA on days 2, 3 and 4, or on days 3, 4, 5 and 6. Core protein p24 was measured using 'Sandwich ELISA' technology using inter alia a monoclonal antibody against p24 core protein. The HIV RNA was measured using a specific labelled DNA probe against HIV RNA and the process of hybridization.
Results were expressed as percent inhibition of HIV-1 p24 core protein production or RNA production on days 3, 4 or 6.
In each test, cells were also exposed to HIV-1 and 3'-azido-3'-deoxythymidine (also known as Zidovudine or AZT) at 100, 10, 1 and 0.1 ng/mℓ. This was a positive control and compounds tested were compared to the inhibitory effect of 10 ng/mℓ AZT.
In all of the following Tables, percentage inhibition refers to inhibition of p24 core protein production and HIV RNA production relative to infected controls. Percentage AZT inhibition refers to inhibition caused by 10 ng/mℓ AZT at the end of the experiment, i.e. after 4 or 6 days.

[4] = Toxicity: lymphocyte proliferation assay with MTT in the HIV-1 infected PBL cultures; settings: human, pbls, Table 8 continued (6 days incubation), read-out: Proliferation as a percentage of control value
Procedure: Possible toxic effects of the test substances were measured by viability testing using Trypan blue or a proliferation assay using3-(4,5-dimethylthiazol-2-yl)-2,5-diphenyl-2H-tetrazolium bromide (MTT) on day 4 or day 6 after initiation of the experiment (Borenfreund et al: Toxicol. In Vitro, 1988, 2, 1-6).
The toxicity of the drug was expressed as a percentage inhibition of lymphocyte proliferation as measured with MTT and compared with controls receiving the virus but no drug.

[5] = as above; settings: human, pbls, Table 8 (3 days incubation), read-out: Proliferation as a percentage of control value
[6] = Human immunodeficiency virus 1, 72 h, 3 days incubation
[7] = Human immunodeficiency virus 1, 144 h, 6 days incubation

In the case of `O=S(=O)(O)Oc1ccc(C#CC/C=C/c2ccc(OS(=O)(=O)O)c(O)c2)cc1O` [Compound XVII], the “Extent of Syncytium Formation” value ([1]; 50 µg/mℓ, viral dose 1/10, 4 days at 33°C (virus control c)) is reported as “c (c = 50 - 75%)”, the “Extent of Syncytium Formation” value ([1]; 50 µg/mℓ, viral dose 1/100, 4 days at 33°C (virus control b)) is reported as “a (a = 0 - 25%)” and the “Extent of Syncytium Formation” value ([1]; 50 µg/mℓ, viral dose Full, 4 days at 33°C (virus control d)) is reported as “d (d = 75 - 100% of cells having three or more nuclei)”. The “Extent of Syncytium Formation” value ([1]; 100 µg/mℓ, viral dose 1/10, 4 days at 33°C (virus control c)) was “a (a = 0 - 25%)”, the “Extent of Syncytium Formation” value ([1]; 100 µg/mℓ, viral dose 1/100, 4 days at 33°C (virus control b)) was “Nil” and the “Extent of Syncytium Formation” value ([1]; 100 µg/mℓ, viral dose Full, 4 days at 33°C (virus control d)) was “c (c = 50 - 75%)”. For the same molecule, the “Extent of Syncytium Formation” value ([1]; 200 µg/mℓ, viral dose 1/10, 4 days at 33°C (virus control c)) was “Nil”, the “Extent of Syncytium Formation” value ([1]; 200 µg/mℓ, viral dose 1/100, 4 days at 33°C (virus control b)) was “Nil” and the “Extent of Syncytium Formation” value ([1]; 200 µg/mℓ, viral dose Full, 4 days at 33°C (virus control d)) was “Nil”. For the same molecule, the “Extent of the Cytopathic Effect of Cytomegalo-Virus” value (“Extent … of Cytomegalo-Virus” below) (cytomegalo-virus (CMV); 50 µg/mℓ, viral dose 1/10, 4 days of incubation (virus control b+)) was “b (b = 25 - 50%)”, the “Extent … of Cytomegalo-Virus” value (cytomegalo-virus (CMV); 50 µg/mℓ, viral dose 1/50, 4 days of incubation (virus control a)) was “a (a = 0 - 25%)” and the “Extent … of Cytomegalo-Virus” value (cytomegalo-virus (CMV); 50 µg/mℓ, viral dose Full, 4 days of incubation (virus control c)) was “bc”. The “Extent … of Cytomegalo-Virus” value (cytomegalo-virus (CMV); 100 µg/mℓ, viral dose 1/10, 4 days of incubation (virus control b+)) was “ab”, the “Extent … of Cytomegalo-Virus” value (cytomegalo-virus (CMV); 100 µg/mℓ, viral dose 1/50, 4 days of incubation (virus control a)) was “a-” and the “Extent … of Cytomegalo-Virus” value (cytomegalo-virus (CMV); 100 µg/mℓ, viral dose Full, 4 days of incubation (virus control c)) was “bc”. The “Extent … of Cytomegalo-Virus” value (cytomegalo-virus (CMV); 200 µg/mℓ, viral dose 1/10, 4 days of incubation (virus control b+)) was “Nil”, the “Extent … of Cytomegalo-Virus” value (cytomegalo-virus (CMV); 200 µg/mℓ, viral dose 1/50, 4 days of incubation (virus control a)) was “Nil” and the “Extent … of Cytomegalo-Virus” value (cytomegalo-virus (CMV); 200 µg/mℓ, viral dose Full, 4 days of incubation (virus control c)) was “Nil”. The “cultures showing signs of toxicity due to the compound” value [2] was 5 out of 8, the “% inhibition:p24 core protein” value ([3]; 50 μg/mℓ, 3 days incubation) was 47% and the “% inhibition:p24 core protein” value ([3]; 50 μg/mℓ, 6 days incubation) was 87%. For the same molecule, the “% inhibition:p24 core protein” value ([3]; 100 μg/mℓ, 3 days incubation) was 88%, the inhibition at 50 µg/mL [3, 6] was 68% and the inhibition at 100 µg/mL [3, 6] was 93%. The inhibition at 50 µg/mL [3, 7] was 91%, the inhibition at 100 µg/mL [3, 7] was 100% and the viability ([4]; 50 μg/mℓ) was 96%. For the same molecule, the viability ([4]; 100 μg/mℓ) was 94%, the viability ([5]; 50 μg/mℓ) was 84% and the viability ([5]; 100 μg/mℓ) was 80%.

— patent EP0587396A1, “Use of hypoxoside derivatives for the treatment of viral infections” (VIROSTAT (NA) NV, priority 1992, dated 1994)
